Measurements from PMC12648656, “Palladium(II) Complexes with Noncovalent Interactions with DNA: Solution Speciation Controlled by Solvent Identity, pH, and Concentration” (Inorganic Chemistry, 2025).

Experiments:
Test in all cases: Antibacterial MIC, broth dilution
Type in all cases: cell-based
[1] = test system: Staphylococcus aureus (272123); details: S. aureus, 18 h, 37 °C
Protocol: (§1) Antibacterial activity was determined for the title compounds in various Gram-negative and Gram-positive bacterial strains, namely Klebsiella pneumoniae, Escherichia coli (ATCC 25922), Staphylococcus aureus (272123), methicillin-resistant Staphylococcus aureus (ATCC 43300), and Enterococcus faecalis (ATCC 29212). The stock solutions of the tested compounds were prepared in DMSO at a 5 mM concentration. […] All stock solutions were diluted in 100 μL of Mueller Hinton Broth, and then two-fold serial dilutions were performed. Then, a 10^–4 dilution of an overnight bacterial culture in 100 μL of medium was added to each well, except for the medium control wells. The highest concentration of the compounds in the tested samples was 100 μM. The plates were incubated at 37 °C for 18 h. After that, the MIC values were determined by visual inspection.

[2] = test system: Enterococcus faecalis (ATCC 29212); details: E. faecalis, 18 h, 37 °C
Protocol: as §1

[3] = test system: Escherichia coli (ATCC 25922); details: E. coli, 18 h, 37 °C
Protocol: as §1

Klebsiella pneumoniae = details: K. pneumoniae, 18 h, 37 °C
Protocol: as §1

Measured: MIC

Clc1ccc(N=C2N[N+](=Cc3c[nH]cn3)[Pd-2]3([S]C(Nc4ccc(Cl)cc4)=N[N+]3=Cc3c[nH]cn3)[S]2)cc1 (stereo not shown) [(2), Bis(1H-imidazole-4-carboxaldehyde-4N-p-chlorophenylthiosemicarbazonato)palladium(II)]
> 100 µM: all assays above
